± gives the expanded uncertainty stated by the source.
Settings: Closed cell (Static) method

With `[C-]#[O+]` [carbon monoxide] the “vapor or sublimation pressure” value (105.89 K, Liquid) was 830 ± 40 kPa and the “vapor or sublimation pressure” value (127.32 K, Liquid) was 2682 ± 40 kPa.

In the case of `[N]=O` [nitrogen oxide (NO)], the “vapor or sublimation pressure” value (105.89 K, Crystal) is reported as 13.6 ± 20 kPa, the “vapor or sublimation pressure” value (127.32 K, Liquid) is reported as 188.3 ± 23 kPa and the “vapor or sublimation pressure” value (135.8 K, Liquid) is reported as 410.9 ± 26 kPa. The “vapor or sublimation pressure” value (146.22 K, Liquid) was 987.8 ± 30 kPa.

With `[Ar]` [argon] the “vapor or sublimation pressure” value (135.8 K, Liquid) was 2605.6 ± 58 kPa and the “vapor or sublimation pressure” value (146.22 K, Liquid) was 4028.9 ± 58 kPa.

— the NIST ThermoML archive (doi:10.1021/acs.jced.7b00782)
